Results on 7 compounds are retold here after US11130741B2 (Bioimics AB, priority 2016, dated 2021).

pIC50: −log10 of the molar value. Values after ≈ are worked out from the molar mass of the structure shown. Where two headings read alike, the source gives them in different places.

A word on the pIC50: it is −log10 of the IC50, conventionally taken in molar units.

Experiment [1] deals with E. coli RNase P RNA, M1 RNA. Put plainly: Initial inhibition of RNase P activity (normalised cleavage of pATSerUG at maximum compound concentration). The class given is biochemical. The conditions noted are these: normalised cleavage (cleavage with compound / without compound).
Experiment [2] concerns Escherichia coli (ATCC25922). Nature of the experiment: MIC, broth microdilution (CLSI), Escherichia coli ATCC25922. (In general: Broth dilution looks for growth in wells or tubes with falling amounts of substance.)
Experiment [3] deals with Staphylococcus aureus (ATCC25923). Put plainly: MIC, broth microdilution (CLSI), Staphylococcus aureus ATCC25923. To be noted: ATCC25923, read-out: S. aureus ("Clinical") MIC.
The test system of experiment [4] is E. coli RNase P RNA, M1 RNA. Nature of the experiment: Inhibition of bacterial RNase P activity, IC50 determination (cleavage of pATSerUG by M1 RNA). The class given is biochemical. The conditions noted are these: NI = No inhibition.
The test system of experiment [5] is Enterococcus faecalis (ATCC29212). Nature of the experiment: MIC, broth microdilution (CLSI), Enterococcus faecalis ATCC29212. The conditions noted are these: read-out: MIC E. faecalis ATCC 29212. The class given is cell-based.
Experiment [6] relates to Pseudomonas aeruginosa (ATCC27853). Nature of the experiment: microbe, parasite or virus in culture. The class given is cell-based. To be noted: read-out: MIC P. aeruginosa ATCC 27853.
The test system of experiment [7] is Staphylococcus aureus subsp. aureus (ATCC29213). Nature of the experiment: MIC, broth microdilution (CLSI), Staphylococcus aureus subsp. aureus ATCC29213. Format: cell-based.
The next experiment has as its system H. influenzae ATCC 49247. Put plainly: MIC, H. influenzae ATCC 49247. Format: cell-based. To be noted: Haemophilus influenzae, ATCC49247.
Another experiment has as its system A. baumannii ATCC 17978. Nature of the experiment: MIC, A. baumannii ATCC 17978. Format: cell-based. To be noted: Acinetobacter baumannii, ATCC17978.
In experiment [8] the test system is P. aeruginosa NTUH-974 (MDR). Nature of the experiment: MIC, P. aeruginosa NTUH-974 (MDR). Format: cell-based.
The next experiment has as its system N. gonorrhoeae 612501. Put plainly: MIC, N. gonorrhoeae 612501. The class given is cell-based. The conditions noted are these: Neisseria gonorrhoeae.
The next experiment deals with E. faecium ATCC 700221. Put plainly: MIC, E. faecium ATCC 700221. Format: cell-based. The conditions noted are these: Enterococcus faecium, ATCC700221; read-out: MIC E. faecium ATCC 700221.
The test system of the next experiment is E. coli JW5503. Put plainly: MIC, E. coli JW5503. Format: cell-based. The conditions noted are these: Escherichia coli, JW5503, read-out: MIC E. coli JW5503.
The next experiment relates to K. pneumoniae ATCC 43816. Put plainly: MIC, K. pneumoniae ATCC 43816. The conditions noted are these: Klebsiella pneumoniae, ATCC43816. Format: cell-based.
The next experiment has as its system S. aureus ATCC 29213. Put plainly: MIC, S. aureus ATCC 29213 + 50% HS. Format: cell-based. To be noted: Staphylococcus aureus, ATCC29213.
Experiment [9] deals with S. aureus MRSA ATCC 33591. Nature of the experiment: MIC, S. aureus MRSA ATCC 33591. The class given is cell-based. To be noted: Staphylococcus aureus; read-out: MIC S. aureus MRSA ATCC 33591.
The next experiment concerns S. pneumoniae ATCC 49619. Nature of the experiment: MIC, S. pneumoniae ATCC 49619. The class given is cell-based. The conditions noted are these: Streptococcus pneumoniae, ATCC49619.
The subject of the next experiment is H. pylori ATCC 43504. Put plainly: MIC, H. pylori ATCC 43504. The class given is cell-based. To be noted: Helicobacter pylori, ATCC43504.
In a further experiment the test system is M. phlei ATCC 11758. Nature of the experiment: MIC, M. phlei ATCC 11758. To be noted: Mycolicibacterium phlei, ATCC11758. Format: cell-based.
In experiment [10] the test system is S. aureus USA300 MRSA BAA 1717. Put plainly: MIC, S. aureus USA300 MRSA BAA 1717. The class given is cell-based. The conditions noted are these: Staphylococcus aureus.
A further experiment relates to M. fortuitum ATCC 110. Nature of the experiment: MIC, M. fortuitum ATCC 110. Format: cell-based. The conditions noted are these: Mycolicibacterium fortuitum, ATCC110.
Setting [11] is: ATCC25922, read-out: E. coli MIC, Table 15, NI = No inhibition.
Where [12] appears, read: ATCC29213, Table 16, read-out: MIC S. aureus ATCC 29213.

Consider `Nc1cc(C(F)(F)F)cc2c1Nc1ccccc1S2` [compound 2, 3-(trifluoromethyl)-10H-phenothiazin-1-amine], for which the “Normalised RNase P cleavage (fraction of control)” value in experiment [1] (at 8 μM) was 0.42; in experiment [1] (at 10 μM) it was 0.84. In addition, the MIC was over 100 µg/mL in experiment [2] (setting [11]) and 4 µg/mL (≈ 14.2 µM) in experiment [3].

Regarding `NCCC(=O)Nc1cc(C(F)(F)F)cc2c1Nc1ccccc1S2` [compound 30, 3-amino-N-(3-(trifluoromethyl)-10H-phenothiazin-1-yl)propanamide], the “Normalised RNase P cleavage (fraction of control)” value in experiment [1] (at 8 μM) was determined as 0.49. In experiment [4], this compound had a pIC50 of under 4.00. In addition, the MIC in experiment [2] (setting [11]) turned out to be 16 µg/mL (≈ 45.3 µM); in experiment [3], 8 µg/mL (≈ 22.6 µM).

In the case of `C=CC(=O)N(CCCN(C)C)c1cc(C(F)(F)F)cc2c1Nc1ccccc1S2` [compound 39, N-(3-(dimethylamino)propyl)-N-(3-(trifluoromethyl)-10H-phenothiazin-1-yl)acrylamide], in experiment [1] (at 8 μM), the “Normalised RNase P cleavage (fraction of control)” value is on record as 0.58. Further, in experiment [4], the pIC50 was 4.12. The values for the MIC in experiment [2] (setting [11]) and in [3] were over 100 µg/mL and 27 µg/mL (≈ 64.1 µM), respectively.

With `CN(C)CCCN1c2ccccc2Sc2cc(C(F)(F)F)cc(N)c21` [compound 42, 10-(3-(dimethylamino)propyl)-3-(trifluoromethyl)-10H-phenothiazin-1-amine], the “Normalised RNase P cleavage (fraction of control)” value in experiment [1] (at 8 μM) was 1.02. For the same compound, the MIC in [2] (setting [11]) is over 100 µg/mL; in experiment [3] it was 47 µg/mL (≈ 128 µM).

In the case of `Nc1cc(C(F)(F)F)cc2c1N(CCCn1ccnc1)c1ccccc1S2` [compound 44, 10-(3-(1H-imidazol-1-yl)propyl)-3-(trifluoromethyl)-10H-phenothiazin-1-amine], in experiment [1] (at 8 μM), the “Normalised RNase P cleavage (fraction of control)” value was 1.06. Further, the MIC in [5] was 16 µg/mL (≈ 41 µM); in experiment [6] it was over 128 µg/mL; in experiment [7] (setting [12]), 4 µg/mL (≈ 10.2 µM); with H. influenzae ATCC 49247, 16 µg/mL (≈ 41 µM); in the experiment on A. baumannii ATCC 17978, over 128 µg/mL; in [8] (Pseudomonas aeruginosa, read-out: MIC P. aeruginosa NTUH-974 (MDR)), over 128 µg/mL. The MIC with N. gonorrhoeae 612501 is 2 µg/mL (≈ 5.12 µM); in the experiment on E. faecium ATCC 700221 it was 8 µg/mL (≈ 20.5 µM); in the experiment on E. coli JW5503, 8 µg/mL (≈ 20.5 µM); in the experiment on K. pneumoniae ATCC 43816, over 128 µg/mL; in the experiment on S. aureus ATCC 29213 it was over 128 µg/mL; in [9], 64 µg/mL (≈ 164 µM). The MIC is 16 µg/mL (≈ 41 µM) in the experiment with S. pneumoniae ATCC 49619; over 100 µg/mL in experiment [2] (setting [11]); over 128 µg/mL in experiment [2] (ATCC25922, read-out: MIC E. coli ATCC 25922); 2 µg/mL (≈ 5.12 µM) in experiment [3].

As for `C[C@@H](N)CC(=O)Nc1cc(C(F)(F)F)cc2c1Nc1ccccc1S2` [compound 67, (R)-3-amino-N-(3-(trifluoromethyl)-10H-phenothiazin-1-yl)butanamide], the “Normalised RNase P cleavage (fraction of control)” value in experiment [1] (at 8 μM) was 0.19. The pIC50 in [4] was under 4.00. Moreover, the MIC in [2] (setting [11]) and in experiment [3] was 13 µg/mL (≈ 35.4 µM) in each case.

As for `CC1CCN(c2ccc3c(c2)Sc2cc(C(F)(F)F)cc(NC4CCN(CCN)CC4)c2N3)CC1.Cl.Cl` [compound 307, N-(1-(2-aminoethyl)piperidin-4-yl)-7-(4-methyl-piperidin-1-yl)-3-(trifluoromethyl)-10H-phenothiazin-1-amine hydrochloride], the negative logarithm of the IC50 (pIC50) in experiment [4] is 4.80. Besides, the MIC in experiment [5] was found to be 2 µg/mL; in experiment [6] it was 16 µg/mL; in [7] (ATCC29213, Table 15, read-out: S. aureus ("wound") (MIC)), 2 µg/mL; in experiment [7] (setting [12]), 2 µg/mL; against H. influenzae ATCC 49247 it was 2 µg/mL; in the experiment on A. baumannii ATCC 17978, 8 µg/mL. In addition, the MIC amounted to 16 µg/mL in experiment [8] (Pseudomonas aeruginosa; read-out: MIC P. aeruginosa NTUH-974 (MDR)); 1 µg/mL against N. gonorrhoeae 612501; 16 µg/mL in the experiment on H. pylori ATCC 43504; 2 µg/mL with E. faecium ATCC 700221; 2 µg/mL with E. coli JW5503; 4 µg/mL against K. pneumoniae ATCC 43816. Besides, the MIC against M. phlei ATCC 11758 was 8 µg/mL; in the experiment with S. aureus ATCC 29213, 32 µg/mL; in experiment [9], 2 µg/mL; with S. pneumoniae ATCC 49619 it was 8 µg/mL; in [10] it was 2 µg/mL; in the experiment on M. fortuitum ATCC 110 it was 4 µg/mL. For the same compound, the MIC in [2] (setting [11]) came to 4 µg/mL; in experiment [2] (ATCC25922, read-out: MIC E. coli ATCC 25922, Table 16) it was 4 µg/mL.
